Converted amounts (≈) assume the structure as drawn. Where two headings read alike, the source gives them in different places.
Assays:
[1] = Shake-flask equilibrium solubility of CNZ in {TP + water} mixtures and neat solvents (HPLC at 253 nm); assay type: physicochemical; conditions: 0.1 MPa
Experimental: Using a Digital Analytical Balance (Mettler Toledo, Greifensee, Switzerland) with a sensitivity of 0.10 mg, all {TP (1) + water (2)} combinations were created on a mass basis. The mass fraction of TP used to make various {TP (1) + water (2)} compositions ranged from 0.10–0.90. Three replicates of each {TP (1) + water (2)} composition were made.
Three repetitions of each experiment were carried out. Inside the Biological Shaker (Julabo, PA, USA), the acquired samples were saturated for three days to achieve equilibrium. After reaching equilibrium, the saturated samples were withdrawn from the shaker and centrifuged at 5000 rpm.

[2] = cited from earlier work
[3] = parameters: method as in PMID 25478230; conditions: cited from earlier work
[4] = Apparent thermodynamic analysis of CNZ dissolution (van't Hoff and Gibbs equations); assay type: physicochemical
Experimental: At the mean harmonic temperature (Thm), all apparent thermodynamic parameters were examined. The Thm was calculated using the usual formula [27]. […] The van’t Hoff and Gibbs equations were used to conduct this analysis.

[5] = parameters: method as in doi:10.1021/acs.jced.5b00075; conditions: cited from earlier work
[6] = TP + water, w1 = 0.1, Thm = 303.0 K
[7] = TP + water, w1 = 0.2, Thm = 303.0 K
[8] = TP + water, w1 = 0.3, Thm = 303.0 K
[9] = TP + water, w1 = 0.4, Thm = 303.0 K
[10] = TP + water, w1 = 0.5, Thm = 303.0 K
[11] = TP + water, w1 = 0.6, Thm = 303.0 K
[12] = TP + water, w1 = 0.7, Thm = 303.0 K
[13] = TP + water, w1 = 0.8, Thm = 303.0 K
[14] = TP + water, w1 = 0.9, Thm = 303.0 K
[15] = w1 = 0.0 (neat water), Thm = 303.0 K
[16] = w1 = 1.0 (neat TP), Thm = 303.0 K

Solubility (xe) in mole fraction ([1]; TP + water, w1 = 0.1, T = 293.2 K): 1.66 × 10^−7 mole fraction | Solubility (xe) in mole fraction ([1]; TP + water, w1 = 0.1, T = 298.2 K): 2.30 × 10^−7 mole fraction | Solubility (xe) in mole fraction ([1]; TP + water, w1 = 0.1, T = 303.2 K): 3.16 × 10^−7 mole fraction | Solubility (xe) in mole fraction ([1]; TP + water, w1 = 0.1, T = 308.2 K): 3.91 × 10^−7 mole fraction | Solubility (xe) in mole fraction ([1]; TP + water, w1 = 0.1, T = 313.2 K): 5.30 × 10^−7 mole fraction | Solubility (xe) in mole fraction ([1]; TP + water, w1 = 0.2, T = 293.2 K): 6.50 × 10^−7 mole fraction | Solubility (xe) in mole fraction ([1]; TP + water, w1 = 0.2, T = 298.2 K): 8.87 × 10^−7 mole fraction | Solubility (xe) in mole fraction ([1]; TP + water, w1 = 0.2, T = 303.2 K): 1.23 × 10^−6 mole fraction | Solubility (xe) in mole fraction ([1]; TP + water, w1 = 0.2, T = 308.2 K): 1.51 × 10^−6 mole fraction | Solubility (xe) in mole fraction ([1]; TP + water, w1 = 0.2, T = 313.2 K): 1.95 × 10^−6 mole fraction | Solubility (xe) in mole fraction ([1]; TP + water, w1 = 0.3, T = 293.2 K): 2.64 × 10^−6 mole fraction | Solubility (xe) in mole fraction ([1]; TP + water, w1 = 0.3, T = 298.2 K): 3.50 × 10^−6 mole fraction | Solubility (xe) in mole fraction ([1]; TP + water, w1 = 0.3, T = 303.2 K): 4.49 × 10^−6 mole fraction | Solubility (xe) in mole fraction ([1]; TP + water, w1 = 0.3, T = 308.2 K): 5.35 × 10^−6 mole fraction | Solubility (xe) in mole fraction ([1]; TP + water, w1 = 0.3, T = 313.2 K): 7.00 × 10^−6 mole fraction | Solubility (xe) in mole fraction ([1]; TP + water, w1 = 0.4, T = 293.2 K): 1.12 × 10^−5 mole fraction | Solubility (xe) in mole fraction ([1]; TP + water, w1 = 0.4, T = 298.2 K): 1.42 × 10^−5 mole fraction | Solubility (xe) in mole fraction ([1]; TP + water, w1 = 0.4, T = 303.2 K): 1.72 × 10^−5 mole fraction | Solubility (xe) in mole fraction ([1]; TP + water, w1 = 0.4, T = 308.2 K): 2.09 × 10^−5 mole fraction | Solubility (xe) in mole fraction ([1]; TP + water, w1 = 0.4, T = 313.2 K): 2.62 × 10^−5 mole fraction | Solubility (xe) in mole fraction ([1]; TP + water, w1 = 0.5, T = 293.2 K): 4.24 × 10^−5 mole fraction | Solubility (xe) in mole fraction ([1]; TP + water, w1 = 0.5, T = 298.2 K): 5.26 × 10^−5 mole fraction | Solubility (xe) in mole fraction ([1]; TP + water, w1 = 0.5, T = 303.2 K): 6.34 × 10^−5 mole fraction | Solubility (xe) in mole fraction ([1]; TP + water, w1 = 0.5, T = 308.2 K): 7.33 × 10^−5 mole fraction | Solubility (xe) in mole fraction ([1]; TP + water, w1 = 0.5, T = 313.2 K): 9.22 × 10^−5 mole fraction | Solubility (xe) in mole fraction ([1]; TP + water, w1 = 0.6, T = 293.2 K): 1.73 × 10^−4 mole fraction | Solubility (xe) in mole fraction ([1]; TP + water, w1 = 0.6, T = 298.2 K): 2.10 × 10^−4 mole fraction | Solubility (xe) in mole fraction ([1]; TP + water, w1 = 0.6, T = 303.2 K): 2.44 × 10^−4 mole fraction | Solubility (xe) in mole fraction ([1]; TP + water, w1 = 0.6, T = 308.2 K): 2.77 × 10^−4 mole fraction | Solubility (xe) in mole fraction ([1]; TP + water, w1 = 0.6, T = 313.2 K): 3.36 × 10^−4 mole fraction | Solubility (xe) in mole fraction ([1]; TP + water, w1 = 0.7, T = 293.2 K): 6.89 × 10^−4 mole fraction | Solubility (xe) in mole fraction ([1]; TP + water, w1 = 0.7, T = 298.2 K): 8.00 × 10^−4 mole fraction | Solubility (xe) in mole fraction ([1]; TP + water, w1 = 0.7, T = 303.2 K): 9.22 × 10^−4 mole fraction | Solubility (xe) in mole fraction ([1]; TP + water, w1 = 0.7, T = 308.2 K): 1.05 × 10^−3 mole fraction | Solubility (xe) in mole fraction ([1]; TP + water, w1 = 0.7, T = 313.2 K): 1.23 × 10^−3 mole fraction | Solubility (xe) in mole fraction ([1]; TP + water, w1 = 0.8, T = 293.2 K): 2.81 × 10^−3 mole fraction | Solubility (xe) in mole fraction ([1]; TP + water, w1 = 0.8, T = 298.2 K): 3.17 × 10^−3 mole fraction | Solubility (xe) in mole fraction ([1]; TP + water, w1 = 0.8, T = 303.2 K): 3.53 × 10^−3 mole fraction | Solubility (xe) in mole fraction ([1]; TP + water, w1 = 0.8, T = 308.2 K): 3.90 × 10^−3 mole fraction | Solubility (xe) in mole fraction ([1]; TP + water, w1 = 0.8, T = 313.2 K): 4.43 × 10^−3 mole fraction | Solubility (xe) in mole fraction ([1]; TP + water, w1 = 0.9, T = 293.2 K): 1.12 × 10^−2 mole fraction | Solubility (xe) in mole fraction ([1]; TP + water, w1 = 0.9, T = 298.2 K): 1.25 × 10^−2 mole fraction | Solubility (xe) in mole fraction ([1]; TP + water, w1 = 0.9, T = 303.2 K): 1.38 × 10^−2 mole fraction | Solubility (xe) in mole fraction ([1]; TP + water, w1 = 0.9, T = 308.2 K): 1.48 × 10^−2 mole fraction | Solubility (xe) in mole fraction ([1]; TP + water, w1 = 0.9, T = 313.2 K): 1.62 × 10^−2 mole fraction | Solubility (xe) in mole fraction ([1]; w1 (TP mass fraction) = 0.0 (neat water), T = 293.2 K): 3.91 × 10^−8 mole fraction | Solubility (xe) in mole fraction ([1]; w1 = 0.0 (neat water), T = 298.2 K): 5.67 × 10^−8 mole fraction | Solubility (xe) in mole fraction ([1]; w1 = 0.0 (neat water), T = 303.2 K): 7.82 × 10^−8 mole fraction | Solubility (xe) in mole fraction ([1]; w1 = 0.0 (neat water), T = 308.2 K): 9.78 × 10^−8 mole fraction | Solubility (xe) in mole fraction ([1]; w1 = 0.0 (neat water), T = 313.2 K): 1.42 × 10^−7 mole fraction | Solubility (xe) in mole fraction ([1]; w1 = 1.0 (neat TP), T = 293.2 K): 4.52 × 10^−2 mole fraction | Solubility (xe) in mole fraction ([1]; w1 = 1.0 (neat TP), T = 298.2 K): 4.78 × 10^−2 mole fraction | Solubility (xe) in mole fraction ([1]; w1 = 1.0 (neat TP), T = 303.2 K): 5.08 × 10^−2 mole fraction | Solubility (xe) in mole fraction ([1]; w1 = 1.0 (neat TP), T = 308.2 K): 5.44 × 10^−2 mole fraction | Solubility (xe) in mole fraction ([1]; w1 = 1.0 (neat TP), T = 313.2 K): 5.83 × 10^−2 mole fraction | Apparent standard Gibbs energy (ΔsolnG°) [4, 6]: 9.039 kcal/mol | Apparent standard enthalpy (ΔsolnH°) [4, 6]: 10.41 kcal/mol | Apparent standard entropy (ΔsolnS°) [4, 6]: 18.92 J mol^−1 K^−1 | Apparent standard Gibbs energy (ΔsolnG°) [4, 7]: 8.229 kcal/mol | Apparent standard enthalpy (ΔsolnH°) [4, 7]: 9.964 kcal/mol | Apparent standard entropy (ΔsolnS°) [4, 7]: 23.94 J mol^−1 K^−1 | Apparent standard Gibbs energy (ΔsolnG°) [4, 8]: 7.433 kcal/mol | Apparent standard enthalpy (ΔsolnH°) [4, 8]: 8.662 kcal/mol | Apparent standard entropy (ΔsolnS°) [4, 8]: 16.96 J mol^−1 K^−1 | Apparent standard Gibbs energy (ΔsolnG°) [4, 9]: 6.606 kcal/mol | Apparent standard enthalpy (ΔsolnH°) [4, 9]: 7.596 kcal/mol | Apparent standard entropy (ΔsolnS°) [4, 9]: 13.68 J mol^−1 K^−1 | Apparent standard Gibbs energy (ΔsolnG°) [4, 10]: 5.827 kcal/mol | Apparent standard enthalpy (ΔsolnH°) [4, 10]: 6.879 kcal/mol | Apparent standard entropy (ΔsolnS°) [4, 10]: 14.50 J mol^−1 K^−1 | Apparent standard Gibbs energy (ΔsolnG°) [4, 11]: 5.014 kcal/mol | Apparent standard enthalpy (ΔsolnH°) [4, 11]: 5.853 kcal/mol | Apparent standard entropy (ΔsolnS°) [4, 11]: 11.57 J mol^−1 K^−1 | Apparent standard Gibbs energy (ΔsolnG°) [4, 12]: 4.209 kcal/mol | Apparent standard enthalpy (ΔsolnH°) [4, 12]: 5.21 kcal/mol | Apparent standard entropy (ΔsolnS°) [4, 12]: 13.82 J mol^−1 K^−1 | Apparent standard Gibbs energy (ΔsolnG°) [4, 13]: 3.401 kcal/mol | Apparent standard enthalpy (ΔsolnH°) [4, 13]: 4.085 kcal/mol | Apparent standard entropy (ΔsolnS°) [4, 13]: 9.464 J mol^−1 K^−1 | Apparent standard Gibbs energy (ΔsolnG°) [4, 14]: 2.588 kcal/mol | Apparent standard enthalpy (ΔsolnH°) [4, 14]: 3.365 kcal/mol | Apparent standard entropy (ΔsolnS°) [4, 14]: 10.72 J mol^−1 K^−1 | Apparent standard Gibbs energy (ΔsolnG°) [4, 15]: 9.876 kcal/mol | Apparent standard enthalpy (ΔsolnH°) [4, 15]: 11.39 kcal/mol | Apparent standard Gibbs energy (ΔsolnG°) [4, 16]: 1.791 kcal/mol | Apparent standard enthalpy (ΔsolnH°) [4, 16]: 2.323 kcal/mol | Apparent standard entropy (ΔsolnS°) [4, 16]: 7.346 J mol^−1 K^−1
Structure (SMILES): C(=C\c1ccccc1)/CN1CCN(C(c2ccccc2)c2ccccc2)CC1 [CNZ, 1-benzhydryl-4-[(E)-3-phenylprop-2-enyl]piperazine]
Solubility in water [2]: practically insoluble in water | Solubility in aqueous buffer ([3]; pH = 2.0, 310.2 K): 290 µg/mL (≈ 787 µM) | Solubility in aqueous buffer ([3]; pH = 5.0, 310.2 K): 17 µg/mL (≈ 46.1 µM) | Solubility in aqueous buffer ([3]; pH = 6.5, 310.2 K): 2 µg/mL (≈ 5.43 µM) | Mole fraction solubility in water ([5]; 298.3 K): 6.63 × 10^−8 mole fraction | Mole fraction solubility in water ([5]; 303.0 K): 7.71 × 10^−8 mole fraction | Mole fraction solubility in water ([5]; 307.8 K): 9.35 × 10^−8 mole fraction

— article PMC8618442, “Solubility of Cinnarizine in (Transcutol + Water) Mixtures: Determination, Hansen Solubility Parameters, Correlation, and Thermodynamics” (Molecules, 2021)
